Key:
Assay type in all cases: cell-based
[1] = system: A549 (human lung cancer cells); experiment: MTT in vitro anti-tumor activity test, A549; details: MTT, 72 h; for A549 IC50: A549 human lung cancer cells
[2] = system: Colo205 (human colon cancer cells); experiment: MTT in vitro anti-tumor activity test, Colo205; details: MTT, 72 h; for Colo205 IC50: Colo205 human colon cancer cells
[3] = system: MDA-MB-435 (human breast cancer cells); experiment: MTT in vitro anti-tumor activity test, MDA-MB-435; details: MTT, 72 h; for MDA-MB-435 IC50: MDA-MB-435 human breast cancer cells
[4] = system: HepG2 (human hepatoma cells); experiment: MTT in vitro anti-tumor activity test, HepG2; details: MTT, 72 h; for HepG2 IC50: HepG2 human hepatoma cells

| Structure (SMILES) | A549 100 μg/mL IC % [1] | A549 IC50 [1] | Colo205 100 μg/mL IC % [2] | Colo205 IC50 [2] | MDA-MB-435 100 μg/mL IC % [3] | MDA-MB-435 IC50 [3] | HepG2 100 μg/mL IC % [4] | HepG2 IC50 [4] |
| --- | --- | --- | --- | --- | --- | --- | --- | --- |
| CCN(CC)CCOc1nc2ccccc2c2c1-c1ccc(OC)cc1C2=O [Compound 2] | 100% | 1.53 µg/mL | 100% | 0.427 µg/mL | 100% | 1.99 µg/mL | 100% | 2.50 µg/mL |
| COc1ccc2c(c1)C(=O)c1c-2c(OCCN2CCCC2)nc2ccccc12 [Compound 3] | 99.90% | 14.39 µg/mL | 92.33% | 10.97 µg/mL | 100% | 26.55 µg/mL | 80.79% | 24.99 µg/mL |
| COc1ccc2c(c1)C(=O)c1c-2c(OCCn2ccnc2)nc2ccccc12 [Compound 4] | 78.34% | 16.61 µg/mL | 60.32% | 13.51 µg/mL | 48.21% | >100 µg/mL | 34.87% | >100 µg/mL |
| COc1ccc2c(c1)C(=O)c1c-2c(OCCN2CCOCC2)nc2ccccc12 [Compound 5] | 48.72% | >100 µg/mL | 43.88% | >100 µg/mL | 19.75% | >100 µg/mL | 13.97% | >100 µg/mL |
| CN(C)CCOc1nc2ccccc2c2c1-c1ccc(Cl)cc1C2=O [Compound 7] | 90.29% | 15.12 µg/mL | 100% | 6.46 µg/mL | 100% | 4.91 µg/mL | 100% | 22.95 µg/mL |
| CCN(CC)CCOc1nc2ccccc2c2c1-c1ccc(Cl)cc1C2=O [Compound 8] | 84.24% | 28.56 µg/mL | 99.01% | 15.16 µg/mL | 100% | 31.62 µg/mL | 73.57% | 28.84 µg/mL |
| O=C1c2cc(Cl)ccc2-c2c(OCCN3CCCC3)nc3ccccc3c21 [Compound 9] | 100% | 5.78 µg/mL | 71.11% | 7.10 µg/mL | 100% | 12.28 µg/mL | 82.92% | 15.99 µg/mL |
| O=C1c2cc(Cl)ccc2-c2c(OCCn3ccnc3)nc3ccccc3c21 [Compound 10] | 97.57% | 14.48 µg/mL | 80.16% | 31.06 µg/mL | 99.70% | 15.02 µg/mL | 92.06% | 34.93 µg/mL |
| O=C1c2cc(Cl)ccc2-c2c(OCCN3CCCCC3)nc3ccccc3c21 [Compound 11] | 69.84% | 32.73 µg/mL | 69.24% | 39.33 µg/mL | 69.43% | 44.76 µg/mL | 63.27% | 55.62 µg/mL |
| CN(C)CCCOc1nc2ccccc2c2c1-c1ccc(Cl)cc1C2=O [Compound 12] | 88.18% | 3.04 µg/mL | 100% | 1.16 µg/mL | 100% | 0.585 µg/mL | 100% | 3.19 µg/mL |
| COc1ccc2c(c1)C(=O)c1c-2c(OCCN(C)C)nc2ccc(OC)cc12 [Compound 13] | 100% | 17.27 µg/mL | 96.52% | 1.79 µg/mL | 100% | 4.34 µg/mL | 100% | 2.47 µg/mL |
| COc1ccc2c(c1)C(=O)c1c-2c(OCCN2CCCCC2)nc2ccc(OC)cc12 [Compound 15] | 100% | 6.95 µg/mL | 100% | 3.13 µg/mL | 99.08% | 6.88 µg/mL | 100% | 5.02 µg/mL |
| COc1ccc2c(c1)C(=O)c1c-2c(OCCCN(C)C)nc2ccc(OC)cc12 [Compound 16] | 100% | 2.91 µg/mL | 100% | 3.49 µg/mL | 100% | 4.09 µg/mL | 100% | 3.48 µg/mL |
| COc1ccc2c(c1)-c1c(OCCN(C)C)nc3ccc(OC)cc3c1C2=O [Compound 17] | 85.30% | 18.26 µg/mL | 100% | 6.70 µg/mL | 100% | 4.98 µg/mL | 100% | 10.31 µg/mL |
| COc1ccc2nc(OCCN3CCCC3)c3c(c2c1)C(=O)c1cc(Br)ccc1-3 [Compound 18] | 35.69% | >100 µg/mL | 43.88% | >100 µg/mL | 67.72% | 24.86 µg/mL | 35.48% | >100 µg/mL |
| COc1ccc2nc(OCCn3ccnc3)c3c(c2c1)C(=O)c1cc(Br)ccc1-3 [Compound 19] | 17.66% | >100 µg/mL | 80.89% | 18.70 µg/mL | 59.37% | 42.24 µg/mL | 37.50% | >100 µg/mL |
| CCN(CC)CCOc1nc2cc(OC)c(OC)cc2c2c1-c1ccc(OC)cc1C2=O [Compound 21] | 100% | 1.68 µg/mL | 88.97% | 2.56 µg/mL | 93.41% | 1.17 µg/mL | 93.16% | 0.700 µg/mL |
| COc1ccc2c(c1)C(=O)c1c-2c(OCCN2CCCC2)nc2cc(OC)c(OC)cc12 [Compound 22] | 97.05% | 1.43 µg/mL | 93.84% | 1.30 µg/mL | 100% | 1.85 µg/mL | 81.69% | 8.61 µg/mL |
| COc1ccc2c(c1)C(=O)c1c-2c(OCCN2CCCCC2)nc2cc(OC)c(OC)cc12 [Compound 24] | 93.92% | 10.32 µg/mL | 98.38% | 5.15 µg/mL | 90.85% | 8.92 µg/mL | 98.55% | 10.78 µg/mL |
| COc1ccc2c(c1)C(=O)c1c-2c(OCCCN(C)C)nc2cc(OC)c(OC)cc12 [Compound 25] | 100% | 2.02 µg/mL | 90.36% | 1.15 µg/mL | 85.38% | 2.66 µg/mL | 89.70% | 1.58 µg/mL |
| COc1cc2nc(OCCN(C)C)c3c(c2cc1OC)C(=O)c1cc(Cl)ccc1-3 [Compound 26] | 100% | 6.89 µg/mL | 100% | 1.45 µg/mL | 100% | 10.51 µg/mL | 97.91% | 11.27 µg/mL |
| COc1cc2nc(OCCn3ccnc3)c3c(c2cc1OC)C(=O)c1cc(Cl)ccc1-3 [Compound 27] | 35.12% | >100 µg/mL | 66.27% | 25.50 µg/mL | 51.23% | 91.52 µg/mL | 57.51% | 56.61 µg/mL |
| COc1cc2nc(OCCCN(C)C)c3c(c2cc1OC)C(=O)c1cc(Cl)ccc1-3 [Compound 29] | 100% | 1.04 µg/mL | 98.69% | 1.47 µg/mL | 100% | 1.45 µg/mL | 91.20% | 3.71 µg/mL |
| COc1ccc2c(c1)C(=O)c1c-2c(OCCBr)nc2ccccc12 [Compound 30] | 19.48% | >100 µg/mL | 21.11% | >100 µg/mL | 31.90% | >100 µg/mL | 0% | >100 µg/mL |

From patent US9181193B2, “Indenoquinolone compound, preparation method and use thereof” (Second Military Medical University, PLA, priority 2010, dated 2015)
